Where two headings read alike, the source gives them in different places.
Assay: Phase I trial of oral PCLX-001: plasma pharmacokinetics, noncompartmental analysis (Phoenix WinNonlin 8.3)
Assay type: in vivo, human
Details: for AUC(0-t): read-out: AUClast; for Tmax: read-out: Tmax
Description: The clinical trial is entitled “Phase I Trial of PCLX-001 in B-cell Non-Hodgkin Lymphoma and Advanced Solid Malignancies” and registered at clinicaltrials.gov as NCT04836195. It is a phase I dose-escalation study of oral PCLX-001, conducted in a multicenter, non-randomized, open-label, non-controlled design. The study is comprised of two parts: Part A (single-agent dose escalation) and Part B (single-agent expansion cohorts).
Patients are to receive daily oral PCLX-001 on 28-day cycles, beginning with a starting dose of 20 mg.
[…] After dosing, the blood samples (volumes 3 mL) were serially collected into heparinized tubes from a right forearm butterfly cannula. All blood fluid specimens were frozen and later assayed using a validated UHPLC-MS detection method.
Noncompartmental pharmacokinetic analysis was performed using Phoenix WinNonlin 8.3 using trapezoidal rule and linear up log down methodology. WinNonlin was allowed to pick optimal terminal phases.
Nonparametric superposition was performed using Phoenix WinNonlin Nonparametric Superposition to predict steady state data based upon Day 1 data for each patient. It utilized the 8- and 24-hour time points for estimation of terminal phase for the purposes of this exercise. We simulated 20 mg daily oral dosing and simulations were conducted out to steady state. Results are show in FIGS. 5, 6, and 7.
In the non-compartmental analysis, Phoenix WinNonlin 8.3 trapezoidal rule was used, with linear up log down method. This allowed WinNonlin to pick optimal terminal phase (WinNonlin will accept Rsq adjusted to >0.7). Additional analysis to assess adequate fie included visual inspection of data, and AUCextrap should be <15%.
Phoenix WinNonlin 8.3 trapezoidal rule. Used linear up log down method. Allowed WinNonlin to pick optimal terminal phase (WinNonlin will accept Rsq adjusted >0.7).
Other analysis to assess adequate fit. Visual inspection of data. AUCextrap should be <15%.

[1] = Table 1A, Patient 115-002-001 (Patient 1), Day 1, 20 mg oral daily
[2] = human, plasma, oral, 20 mg, Table 4, Mean, not on Pantoprazole, 20 mg, N 3, Day 1
[3] = human, plasma, oral, 20 mg, Table 4, Mean, not on Pantoprazole, 20 mg, N 3, Day 15
[4] = human, plasma, oral, 40 mg, Table 4, not on Pantoprazole, 40 mg, N 1, Day 1
[5] = human, plasma, oral, 40 mg, Table 4, not on Pantoprazole, 40 mg, N 1, Day 15
[6] = human, plasma, oral, 40 mg, Table 5, on Pantoprazole, 40 mg, N 1, Day 1
[7] = human, plasma, oral, 40 mg, Table 5, on Pantoprazole, 40 mg, N 1, Day 15
[8] = human, plasma, oral, 70 mg, Table 4, not on Pantoprazole, 70 mg, N 1, Day 1

With `Cc1c(NS(=O)(=O)c2c(Cl)cc(-c3ccnc(N4CCNCC4)c3)cc2Cl)c(CC(C)C)nn1C` [PCLX-001, 2,6-dichloro-N-(3-isobutyl-1,5-dimethyl-1H-pyrazol-4-yl)-4-(2-(piperazin-1-yl)pyridin-4-yl)benzene sulfonamide] the “systemic accumulation of drug” value (Patient 1, by day 15, 20 mg oral daily) was “without systemic accumulation of drug”, the drug accumulation (Patient 2, 20 mg oral daily) was “No significant drug accumulation” and the AUCextrep [1] was 15.9%. It also gave a half-life [1] of 8.5 h, an AUCextrep (Table 1A, Patient 115-002-001 (Patient 1), Day 15, 20 mg oral daily) of 21.9% and an AUCextrep (Table 1A, Patient 115-002-002 (Patient 2), Day 15, 20 mg oral daily) of 20.4%. The AUCextrep (Table 1A, Patient 115-002-004 (Patient 3), Day 1, 20 mg oral daily) was 5.41%, the AUCextrep (Table 1A, Patient 115-002-004 (Patient 3), Day 15, 20 mg oral daily) was 11.3% and the AUCextrap (Table 6, Patient 115-002-001, Day 1, 20 mg QD oral, Pantoprazole No) was 15.3%. The AUCextrap (Table 6, Patient 115-002-001, Day 15, 20 mg QD oral, Pantoprazole No) was 23.7%, the AUCextrap (Table 6, Patient 115-002-002, Day 15, 20 mg QD oral, Pantoprazole No) was 17.5% and the AUCextrap (Table 6, Patient 115-002-004, Day 1, 20 mg QD oral, Pantoprazole No) was 5.1%. For the same compound, the AUCextrap (Table 6, Patient 115-002-004, Day 15, 20 mg QD oral, Pantoprazole No) was 10.0%, the AUCextrap (Table 7, Patient 115-002-005, Day 1, 40 mg QD oral, Pantoprazole Yes) was 9.5% and the AUCextrap (Table 7, Patient 115-002-005, Day 15, 40 mg QD oral, Pantoprazole Yes) was 5.3%. For the same compound, the AUCextrap (Table 7, Patient 115-009-001, Day 1, 40 mg QD oral, Pantoprazole No) was 20.1%, the AUCextrap (Table 7, Patient 115-009-001, Day 15, 40 mg QD oral, Pantoprazole No) was 24.9% and the AUCextrap (Table 8, Patient 115-024-001, Day 1, 70 mg QD oral, Pantoprazole No) was 16.8%. For the same compound, the AUCextrap (Table 9, Patient 115-002-009, Day 1, 100 mg QD oral, Pantoprazole No) was 4.4%, the AUCextrap (Table 9, Patient 115-002-010, Day 1, 100 mg QD oral, Pantoprazole No) was 10.9% and the AUCextrap (Table 9, Patient 115-002-011, Day 1, 100 mg QD oral, Pantoprazole No) was 18.4%. For the same compound, the AUCextrap (Table 9, Patient 115-002-012, Day 15, 100 mg QD oral, Pantoprazole No) was 12.2%, the AUCextrap (Table 10, Patient 115-002-006, Day 1, Dose 140 mg QD oral, Concomitant Pantoprazole No) was 5.48% and the AUCextrap (Table 10, Patient 115-002-006, Day 15, Dose 140 mg QD oral, Concomitant Pantoprazole No) was 22.7%. It also gave an AUCextrap (Table 10, Patient 115-024-005, Day 1, Dose 140 mg QD oral, Concomitant Pantoprazole Yes) of 12.1%, an AUCextrap (Table 10, Patient 115-024-005, Day 15, Dose 140 mg QD oral, Concomitant Pantoprazole Yes) of 37.9% and an AUCextrap (Table 10, Patient 115-024-013, Day 1, Dose 140 mg QD oral, Concomitant Pantoprazole Yes) of 12.5%. The AUCextrap (Table 10, Patient 115-024-013, Day 15, Dose 140 mg QD oral, Concomitant Pantoprazole Yes) was 39.9%, the “dose proportionality of systemic exposure” value (dose range of 20 to 140 mg) was “dose proportional” and the Cmax (human, plasma, oral, 20 mg, Table 3, human (patient 1), 20 mg/75 kg = 0.27 mg/kg) was 479 ng/mL. The half-life (human, plasma, oral, 20 mg, Table 3, human (patient 1), 20 mg/75 kg = 0.27 mg/kg, read-out: Terminal elimination half-life (converted)) was 16 h, the Cmax (human, plasma, oral, 20 mg, Table 4, Mean (CV), not on Pantoprazole, 20 mg, N 3, Day 1) was 276 ng/mL and the half-life (human, plasma, oral, 20 mg, Table 4, Mean (CV), not on Pantoprazole, 20 mg, N 3, Day 1, read-out: t½ (converted)) was 6.93 h. For the same compound, the Cmax (human, plasma, oral, 20 mg, Table 4, Mean (CV), not on Pantoprazole, 20 mg, N 3, Day 15) was 359 ng/mL, the half-life (human, plasma, oral, 20 mg, Table 4, Mean (CV), not on Pantoprazole, 20 mg, N 3, Day 15, read-out: t½ (converted)) was 8.93 h and the AUC(0-inf) [2] was 1960 ng·h/mL. For the same compound, the AUC(0-t) [2] was 1600 ng·h/mL, the AUC(0-inf) [3] was 2720 ng·h/mL and the AUC(0-t) [3] was 2220 ng·h/mL. For the same compound, the Tmax (human, plasma, oral, 20 mg, Table 4, median (min, max), not on Pantoprazole, 20 mg, N 3, Day 1) was 2 h, the Tmax (human, plasma, oral, 20 mg, Table 4, median (min, max), not on Pantoprazole, 20 mg, N 3, Day 15) was 1 h and the AUC(0-inf) [4] was 12600 ng·h/mL. The Cmax [4] was 1670 ng/mL, the AUC(0-t) [4] was 10100 ng·h/mL and the Tmax [4] was 1 h. The half-life (human, plasma, oral, 40 mg, Table 4, not on Pantoprazole, 40 mg, N 1, Day 1, read-out: t½ (converted)) was 10.8 h, the AUC(0-inf) [5] was 18300 ng·h/mL and the Cmax [5] was 1480 ng/mL. For the same compound, the AUC(0-t) [5] was 13700 ng·h/mL, the Tmax [5] was 2 h and the half-life (human, plasma, oral, 40 mg, Table 4, not on Pantoprazole, 40 mg, N 1, Day 15, read-out: t½ (converted)) was 11.9 h. For the same compound, the AUC(0-inf) [6] was 4900 ng·h/mL, the Cmax [6] was 868 ng/mL and the AUC(0-t) [6] was 4430 ng·h/mL. The Tmax [6] was 0.5 h, the half-life (human, plasma, oral, 40 mg, Table 5, on Pantoprazole, 40 mg, N 1, Day 1, read-out: t½ (converted)) was 7.5 h and the AUC(0-inf) [7] was 7060 ng·h/mL. It also gave a Cmax [7] of 802 ng/mL, an AUC(0-t) [7] of 6680 ng·h/mL and a Tmax [7] of 2 h. For the same compound, the half-life (human, plasma, oral, 40 mg, Table 5, on Pantoprazole, 40 mg, N 1, Day 15, read-out: t½ (converted)) was 5.54 h, the AUC(0-inf) [8] was 11300 ng·h/mL and the Cmax [8] was 1430 ng/mL. The AUC(0-t) [8] was 9400 ng·h/mL, the Tmax [8] was 1 h and the half-life (human, plasma, oral, 70 mg, Table 4, not on Pantoprazole, 70 mg, N 1, Day 1, read-out: t½ (converted)) was 9.44 h.

— patent US20250161299A1, “ORAL PCLX-001 IN THE TREATMENT OF HUMAN CANCER” (PACYLEX PHARMACEUTICALS INC., priority 2022, published 2025)
